Laboratory results: patent US8178522B2, “Thiazoles” (Hoffmann-La Roche Inc., priority 2009, dated 2012)

The compounds below were run against T1, GABA A α5 (α5β3γ2) (Homo sapiens, UniProt P18507+P31644) (assay: [3H]flumazenil competition binding, human GABA A α5 receptor). Conditions: not given.
T1 construct: expressed in transfected cells; host or cells: HEK293, transiently transfected; membrane preparation
Procedure: Membrane Preparation and Binding Assay
The affinity of compounds at GABA A receptor subtypes was measured by competition for [3H]flumazenil (85 Ci/mmol; Roche) binding to HEK293 cells expressing rat (stably transfected) or human (transiently transfected) receptors of compositional α1β3γ2, α2β3γ2, α3β3γ2 and α5β3γ2.
Cell pellets were suspended in Krebs-tris buffer (4.8 mM KCl, 1.2 mM CaCl2, 1.2 mM MgCl2, 120 mM NaCl, 15 mM Tris; pH 7.5; binding assay buffer), homogenized by polytron for ca. 20 sec on ice and centrifuged for 60 min at 4° C. (50000 g; Sorvall, rotor: SM24=20000 rpm). The cell pellets were re-suspended in Krebs-tris buffer and homogenized by polytron for ca. 15 sec on ice. Protein was measured (Bradford method, Bio-Rad) and aliquots of 1 mL were prepared and stored at −80° C.
Assays were incubated to equilibrium for 1 hour at 4° C. and harvested onto GF/C uni-filters (Packard) by filtration using a Packard harvester and washing with ice-cold wash buffer (50 mM Tris; pH 7.5). After drying, filter-retained radioactivity was detected by liquid scintillation counting. Ki values were calculated using Excel-Fit (Microsoft) and are the means of two determinations.
In the case of `Cc1onc(-c2ccc(F)cn2)c1CCc1ncc(C(=O)NC2CC2)s1` [Example 42, 2-{2-[3-(5-Fluoro-pyridin-2-yl)-5-methyl-isoxazol-4-yl]-ethyl}-thiazole-5-carboxylic acid cyclopropylamide], the Ki is reported as 12.7 nM.

Same assay, conditions: human receptor α5β3γ2 transiently transfected in HEK293 cells; competition for [3H]flumazenil 0.5 nM; 1 hour at 4° C.; means of two determinations; read-out: hKi GABA A α5
For `Cc1nc(CCc2c(-c3ccc(F)cn3)noc2C)sc1C(=O)NCCO` [Example 36, 2-{2-[3-(5-Fluoro-pyridin-2-yl)-5-methyl-isoxazol-4-yl]-ethyl}-4-methyl-thiazole-5-carboxylic acid (2-hydroxy-ethyl)-amide], the Ki was 14 nM. `Cc1onc(-c2ccccn2)c1CCc1ncc(C(=O)NC(C)C)s1` [Example 22, 2-[2-(5-Methyl-3-pyridin-2-yl-isoxazol-4-yl)-ethyl]-thiazole-5-carboxylic acid isopropylamide] gave a Ki of 18.1 nM. `CCNC(=O)c1cnc(/C=C/c2c(-c3ccc(F)cn3)noc2C)s1` [Example 87, 2-{(E)-2-[3-(5-Fluoro-pyridin-2-yl)-5-methyl-isoxazol-4-yl]-vinyl}-thiazole-5-carboxylic acid ethylamide] showed a Ki of 4 nM. `Cc1onc(-c2ccccn2)c1CCc1ncc(C(=O)NC2CCOCC2)s1` [Example 24, 2-[2-(5-Methyl-3-pyridin-2-yl-isoxazol-4-yl)-ethyl]-thiazole-5-carboxylic acid (tetra-hydro-pyran-4-yl)-amide] was tested, and the Ki was 18.8 nM. With `CCCCc1noc(C)c1CCc1ncc(C(=O)N[C@@H](C)CO)s1` [Example 61, 2-[2-(3-Butyl-5-methyl-isoxazol-4-yl)-ethyl]-thiazole-5-carboxylic acid ((S)-2-hydroxy-1-methyl-ethyl)-amide] the Ki was 43.6 nM. `Cc1onc(-c2ccccc2)c1COc1ncc(C(=O)NC(C)C)s1` [Example 127, 2-(5-Methyl-3-phenyl-isoxazol-4-ylmethoxy)-thiazole-5-carboxylic acid isoprop-ylamide] gave a Ki of 2.2 nM. Work on `Cc1onc(-c2ccc(F)cn2)c1CCc1ncc(C(=O)NC2CCOCC2)s1` [Example 40, 2-{2-[3-(5-Fluoro-pyridin-2-yl)-5-methyl-isoxazol-4-yl]-ethyl}-thiazole-5-carboxylic acid (tetrahydro-pyran-4-yl)-amide] yielded a Ki of 13.3 nM. Work on `Cc1nc(CCc2c(-c3ccccc3)noc2C)sc1C(=O)NC1CCOCC1` [Example 5, 4-Methyl-2-[2-(5-methyl-3-phenyl-isoxazol-4-yl)-ethyl]-thiazole-5-carboxylic acid (tetrahydro-pyran-4-yl)-amide] yielded a Ki of 8.2 nM. For `CCCCc1noc(C)c1/C=C/c1nc(C)c(C(N)=O)s1` [Example 100, 2-[(E)-2-(3-Butyl-5-methyl-isoxazol-4-yl)-vinyl]-4-methyl-thiazole-5-carboxylic acid amide], the Ki was 2 nM. `Cc1nc(/C=C/c2conc2-c2ccc(F)cn2)sc1C(=O)NC1CCOCC1` [Example 90, 2-{(E)-2-[3-(5-Fluoro-pyridin-2-yl)-isoxazol-4-yl]-vinyl}-4-methyl-thiazole-5-carboxylic acid (tetrahydro-pyran-4-yl)-amide] gave a Ki of 24.8 nM. For `Cc1nc(CCc2conc2-c2ccccn2)sc1C(=O)NCC(F)(F)F` [Example 20, 4-Methyl-2-[2-(3-pyridin-2-yl-isoxazol-4-yl)-ethyl]-thiazole-5-carboxylic acid (2,2,2-trifluoro-ethyl)-amide], the Ki was 90.5 nM. Work on `Cc1onc(-c2ccccc2)c1/C=C/c1ncc(C(=O)NC2CCOC2)s1` (stereo in doubt) [Example 64, (S)-2-[(E)-2-(5-Methyl-3-phenyl-isoxazol-4-yl)-vinyl]-thiazole-5-carboxylic acid (tetra-hydro-furan-3-yl)-amide] yielded a Ki of 1.7 nM. `Cc1onc(-c2ccccc2)c1COc1ncc(C(=O)NC2CCOCC2)s1` [Example 128, 2-(5-Methyl-3-phenyl-isoxazol-4-ylmethoxy)-thiazole-5-carboxylic acid (tetrahydro-pyran-4-yl)-amide] was tested, and the Ki was 1.8 nM. With `CCCCc1noc(C)c1CCc1nc(C)c(C(=O)NC(C)C)s1` [Example 48, 2-[2-(3-Butyl-5-methyl-isoxazol-4-yl)-ethyl]-4-methyl-thiazole-5-carboxylic acid iso-propylamide] the Ki was 23.1 nM. Work on `Cc1nc(/C=C/c2c(-c3ccc(F)cn3)noc2C)sc1C(=O)NC1CC1` [Example 73, 2-{(E)-2-[3-(5-Fluoro-pyridin-2-yl)-5-methyl-isoxazol-4-yl]-vinyl}-4-methyl-thiazole-5-carboxylic acid cyclopropylamide] yielded a Ki of 1.6 nM. With `CCCCc1noc(C)c1CCc1ncc(C(=O)NC(C)CO)s1` (stereo not drawn) [Example 58, 2-[2-(3-Butyl-5-methyl-isoxazol-4-yl)-ethyl]-thiazole-5-carboxylic acid (2-hydroxy-1-methyl-ethyl)-amide] the Ki was 50.9 nM. Compound `Cc1nc(/C=C/c2c(-c3ccccc3)noc2C)sc1C(=O)NC1CCOC1` (stereo not drawn) [Example 69, 4-Methyl-2-[(E)-2-(5-methyl-3-phenyl-isoxazol-4-yl)-vinyl]-thiazole-5-carboxylic acid (tetrahydro-furan-3-yl)-amide] has a Ki of 0.3 nM. `CCCCc1noc(C)c1/C=C/c1nc(C)c(C(=O)NC(C)C)s1` [Example 93, 2-[(E)-2-(3-Butyl-5-methyl-isoxazol-4-yl)-vinyl]-4-methyl-thiazole-5-carboxylic acid isopropylamide] gave a Ki of 1.9 nM. `Cc1nc(CCc2conc2-c2ccccn2)sc1C(=O)NC1CCOCC1` [Example 19, 4-Methyl-2-[2-(3-pyridin-2-yl-isoxazol-4-yl)-ethyl]-thiazole-5-carboxylic acid (tetra-hydro-pyran-4-yl)-amide] gave a Ki of 87.6 nM. `Cc1onc(-c2ccccn2)c1CCc1ncc(C(=O)NCCO)s1` [Example 29, 2-[2-(5-Methyl-3-pyridin-2-yl-isoxazol-4-yl)-ethyl]-thiazole-5-carboxylic acid (2-hydroxy-ethyl)-amide] gave a Ki of 32.4 nM. `CCCCc1noc(C)c1/C=C/c1nc(C)c(C(=O)NCC)s1` [Example 121, 2-[(E)-2-(3-Butyl-5-methyl-isoxazol-4-yl)-vinyl]-4-methyl-thiazole-5-carboxylic acid ethylamide] was tested, and the Ki was 5 nM. `Cc1onc(-c2ccccn2)c1CCc1ncc(C(=O)NC2CC2)s1` [Example 23, 2-[2-(5-Methyl-3-pyridin-2-yl-isoxazol-4-yl)-ethyl]-thiazole-5-carboxylic acid cyclo-propylamide] showed a Ki of 26.1 nM. For `CCCCc1noc(C)c1CCc1nc(C)c(C(=O)NC(CO)CO)s1` [Example 53, 2-[2-(3-Butyl-5-methyl-isoxazol-4-yl)-ethyl]-4-methyl-thiazole-5-carboxylic acid (2-hydroxy-1-hydroxymethyl-ethyl)-amide], the Ki was 18.7 nM. `Cc1nc(/C=C/c2c(-c3ccc(F)cn3)noc2C)sc1C(N)=O` [Example 76, 2-{(E)-2-[3-(5-Fluoro-pyridin-2-yl)-5-methyl-isoxazol-4-yl]-vinyl}-4-methyl-thiazole-5-carboxylic acid amide] was tested, and the Ki was 4.1 nM. `Cc1onc(-c2ccc(F)cn2)c1/C=C/c1ncc(C(=O)NC2CCOCC2)s1` [Example 77, 2-{(E)-2-[3-(5-Fluoro-pyridin-2-yl)-5-methyl-isoxazol-4-yl]-vinyl}-thiazole-5-carboxylic acid (tetrahydro-pyran-4-yl)-amide] gave a Ki of 3.5 nM. `Cc1onc(-c2ccc(F)cn2)c1CCc1ncc(C(=O)NCCO)s1` [Example 45, 2-{2-[3-(5-Fluoro-pyridin-2-yl)-5-methyl-isoxazol-4-yl]-ethyl}-thiazole-5-carboxylic acid (2-hydroxy-ethyl)-amide] was tested, and the Ki was 26.3 nM.
